In patent publication US20050019746A1, “Apoptosis-related kinase/GPCRs” (EiRx Therapeutics Limited, priority 2003, published 2005):
“Also recorded” adds a separate entry of the source.

Tests used:
Format in all cases: cell-based, human
[1] = system: target gene mRNA in DU145 cells; test: Knockdown by RNAi, QPCR, DU145 cells; details: DU145, 24 hrs post transfection, relative to missense control
Description: These siRNA oligos are initially tested for efficacy in a cell line in which the gene is expressed for example in the Hela, U251, TF1 or DU145 cell lines. Cells are plated at a density of between 7.5-10×10^4 in each well of a 6 well plate and incubated at 37° C. overnight in DMEM culture medium (1× Dulbeccos modified Eagles medium (Sigma D2554), 0.004% folic acid, 4 mM L-glutamine, 0.37% sodium bicarbonate, 0.1 mM sodium pyruvate) containing 10% fetal calf serum (FCS). 2 μg of duplex siRNA is transfected into cells using DMRIE-C reagent (Invitrogen 10459-014) according to methods described in U.S. Patent Application No. 60/498,488. In brief, to prepare 1 ml of a transfection solution 2 μg of siRNA duplex in added to 1 ml of Optimem (Gibco), to which 8 μl of DMRIE C reagent is added. Transfection mix is added directly to the cells and incubated for 4 hrs at 37° C. Post this 4 hr incubation, transfection solution is removed and cells are refed with fresh culture medium and incubated for a further 24 hrs. An additional medium change is required at this point to minimise toxicity of the transfection procedure. Cells are harvested at 24 or 48 hrs post transfection for analysis of mRNA expression. […]
After DMRIE transfections with siRNA Oligos against the apoptosis associated genes identified herein, or controls, cells are harvested at 24 or 48 hours post transfection as stated previously. […] RNA is quantified by spectrophotometric analysis and 1 μg is reverse transcribed into cDNA using SuperScriptII RNAseH-Reverse Transcriptase (Invitrogen 18064-014). […] QPCR primers are designed to amplify a PCR product of approximately 100 to 300 nucleotides in length from the CDS, following the guidelines outlined in the Quantitect SYBR Green PCR handbook from Qiagen.
Two template standards are used for quantitative PCR assessment of mRNA levels: • 1. A control RPS13 i.e. Ribosomal Protein Sub unit 13 (NM_001017) amplified PCR product diluted to [1000,100,10,1 and 0.1 fg] respectively, used to quantify the level of transcript; • 2. […]

cancer cell lines = test: Anchorage Independence/Soft Agar Assay, summary over the cell lines; details: 14-day anchorage independent assay, over the cell lines examined
Description: The Anchorage Independence/Soft Agar Assay allows assessment of the influence of modulation of gene expression on clonal tumouroid formation by observing and quantifying tumouroid morphology and colony number over an extended period of logarithmic growth thereby ascertaining any cell death is induced.
Cells are seeded into a 6-well plate and allowed to adhere overnight at 37° C. in a humidified atmosphere containing 5% CO2 in air. Cells are next transfected with siRNA Oligomers, at a concentration of 2 μg, against the genes of interest. Transfections continued for 4 hrs after which the transfection solution is removed and cells are refed with fresh medium and allowed incubate overnight. Transfected cells are next harvested for seeding into soft agar assay as described below. Cells are seeded at 5×10^4 cells per well of a 6 well plate and incubated over a 12/14-Day period whilst proliferating in a 0.05% Agar/Medium cell suspension at 37° C. in a humidified atmosphere containing 5% CO2 in air. Colonies formed are subsequently stained with Crystal Violet, their morphology is assessed and colonies formed are enumerated at a 4× magnification.
The cytotoxic effect of each gene is determined by a reduction in colony number compared to our MS control, but any influence on the morphology of the colony is also noted.
As an internal reference, the known survival gene ‘Survivin’ was also targeted by siRNA.

MCF7 cells = test: Anchorage Independence/Soft Agar Assay, MCF7; set-up: PERCENTAGE SURVIVAL RELATIVE TO MS, MCF7, n = 2: tested at 2 µg; details: soft agar; for PERCENTAGE SURVIVAL RELATIVE TO MS, MCF7, n = 1: experiment n = 1; for PERCENTAGE SURVIVAL RELATIVE TO MS, MCF7, n = 2: experiment n = 2
Summary of the method: (§1)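 Cells were transfected for 4 h with 2 μg siRNA against target genes, then seeded at 5×10^4 cells/well in 0.05% agar/medium and grown 12/14 days at 37 °C, 5% CO2. Crystal violet-stained colonies were counted at 4× and morphology assessed; survival expressed relative to missense siRNA control.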

HCT15 cells = test: Anchorage Independence/Soft Agar Assay, HCT15; set-up: PERCENTAGE SURVIVAL RELATIVE TO MS, HCT15, n = 2: tested at 2 µg; PERCENTAGE SURVIVAL RELATIVE TO MS, HCT15, n = 1: tested at 2 µg siRNA; details: soft agar; for PERCENTAGE SURVIVAL RELATIVE TO MS, HCT15, n = 1: experiment n = 1; for PERCENTAGE SURVIVAL RELATIVE TO MS, HCT15, n = 2: experiment n = 2
Summary of the method: as §1

A549 cells = test: Anchorage Independence/Soft Agar Assay, A549; set-up: PERCENTAGE SURVIVAL RELATIVE TO MS, A549, n = 2: tested at 2 µg; details: soft agar; for PERCENTAGE SURVIVAL RELATIVE TO MS, A549, n = 1: experiment n = 1; for PERCENTAGE SURVIVAL RELATIVE TO MS, A549, n = 2: experiment n = 2
Summary of the method: as §1

| Substance | % Knockdown by RNAi, DU145 [1] [%] | cell death / apoptosis in the soft agar assay (cancer cell lines) | PERCENTAGE SURVIVAL RELATIVE TO MS, MCF7, n = 1 (MCF7 cells) [%] | PERCENTAGE SURVIVAL RELATIVE TO MS, MCF7, n = 2 (MCF7 cells) [%] | PERCENTAGE SURVIVAL RELATIVE TO MS, HCT15, n = 1 (HCT15 cells) [%] | PERCENTAGE SURVIVAL RELATIVE TO MS, HCT15, n = 2 (HCT15 cells) [%] | PERCENTAGE SURVIVAL RELATIVE TO MS, A549, n = 1 (A549 cells) [%] | PERCENTAGE SURVIVAL RELATIVE TO MS, A549, n = 2 (A549 cells) [%] |
| --- | --- | --- | --- | --- | --- | --- | --- | --- |
| siRNA FLT4: sense GUACGGCAACCUCUCCAACtt, antisense GUUGGAGAGGUUGCCGUACtt (sense GUACGGCAACCUCUCCAACTT; antisense GUUGGAGAGGUUGCCGUACTT; chemistry not given here) | 85 | – | – | – | – | – | – | – |
| siRNA GRAF: siRNA duplex, sense GCGGAAGUUUGCAGAUUCCtt, antisense GGAAUCUGCAAACUUCCGCtt; same in Tables 9 and 11 (sense GCGGAAGUUUGCAGAUUCCTT; antisense GGAAUCUGCAAACUUCCGCTT; chemistry not given here) | 84.4 | – | – | – | – | – | – | – |
| siRNA MAK: sense GAAGCCAAGCAUGGGUGUUtt, antisense AACACCCAUGCUUGGCUUCtt (sense GAAGCCAAGCAUGGGUGUUTT; antisense AACACCCAUGCUUGGCUUCTT; chemistry not given here) | 19 | – | – | – | – | – | – | – |
| siRNA MKNK: sense UACAUGGCCCCUGAGGUAGtt, antisense CUACCUCAGGGGCCAUGUAtt (sense UACAUGGCCCCUGAGGUAGTT; antisense CUACCUCAGGGGCCAUGUATT; chemistry not given here) | – | induced cell death consistently in 2 of the cell lines examined | 25.9 | 4 | 66.3 | 90.9 | 85 | 21.6 |
| siRNA MPSK1: sense GGGUUAUGCCCACAGAGACtt, antisense GUCUCUGUGGGCAUAACCCtt (sense GGGUUAUGCCCACAGAGACTT; antisense GUCUCUGUGGGCAUAACCCTT; chemistry not given here) | – | significant cell death in all cell lines | 35.8 | 30.3 | 42.3 | 62.2 | 59.4 | 19.5 |
| siRNA PSKH1: sense GAACCUGCACCGCUCCAUAtt, antisense UAUGGAGCGGUGCAGGUUCtt (sense GAACCUGCACCGCUCCAUATT; antisense UAUGGAGCGGUGCAGGUUCTT; chemistry not given here) | – | modulates apoptosis; also recorded: significant cell death in all cell lines | 82.6 | 11.9 | 37.2 | 41 | 65.8 | 32.5 |
| siRNA Survivin: positive control siRNA, sense GAACUGGCCCUUCUUGGAGtt, antisense CUCCAAGAAGGGCCAGUUCtt (sense GAACUGGCCCUUCUUGGAGTT; antisense CUCCAAGAAGGGCCAGUUCTT; chemistry not given here) [reference compound] | – | induced cell death in all cell lines | 80.3 | 50.3 | 71.5 | 48.6 | 53 | 17.7 |
